As a reminder, the IC50 is the concentration at which inhibition is half-maximal.

From US7268128B2, “1,3,5-trisubstituted-5-phenyl and 5-pyridyl pyrazolopyrimidinone derivatives having PDE7 inhibiting action” (Ausbio Pharma Co., Ltd., priority 2001, dated 2007) come the findings set out here.

This experiment deals with T1, PDE7 (type VII phosphodiesterase) (Homo sapiens, UniProt Q13946).
T1 construct: endogenous in cells; host or cells: MOLT-4 (ATCC CRL-1582), soluble fraction, HiTrapQ anion-exchange fraction
T1 sequence (Q13946 whole entry): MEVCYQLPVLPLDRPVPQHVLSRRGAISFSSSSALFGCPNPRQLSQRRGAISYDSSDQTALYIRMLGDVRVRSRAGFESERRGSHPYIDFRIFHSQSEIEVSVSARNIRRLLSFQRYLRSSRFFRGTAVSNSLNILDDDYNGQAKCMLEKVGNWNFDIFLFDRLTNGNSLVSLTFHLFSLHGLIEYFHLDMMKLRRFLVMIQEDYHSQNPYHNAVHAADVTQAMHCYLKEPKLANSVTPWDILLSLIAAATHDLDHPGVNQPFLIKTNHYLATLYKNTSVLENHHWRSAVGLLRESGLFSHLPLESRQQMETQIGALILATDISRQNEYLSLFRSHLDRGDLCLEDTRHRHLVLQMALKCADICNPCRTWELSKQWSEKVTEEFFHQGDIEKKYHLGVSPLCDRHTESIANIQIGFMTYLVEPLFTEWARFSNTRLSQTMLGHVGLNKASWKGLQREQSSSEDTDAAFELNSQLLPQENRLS
As to the kind of experiment: PDE7 inhibiting activity (3H-cAMP hydrolysis, active fraction from MOLT-4 cells). The experiment is classed as biochemical. The conditions noted are these: PDE7 fraction from MOLT-4 cells, 0.064 μM cAMP, 10 μM rolipram present, 2 hours at 25° C.; read-out: IC50 values for phosphodiesterase inhibiting activities (PDE7). The protocol:
To evaluate the compounds of the present invention for the ability to suppress PDE7 (type VII phosphodiesterase), the method of Biochemical Pharmacol. 48(6), 1219-1223 (1994) was partially modified to perform the following assay:
1) PDE7 (type VII phosphodiesterase) active fraction was obtained. That is, human acute lymphoblastoid lymphoma T cell strain MOLT-4 (purchasable from ATCC under ATCC No. CRL-1582) was cultured in RPMI1640 medium containing 10% fetal bovine serum to obtain 5×10^8 MOLT4 cells. The cells were harvested by centrifugation, and suspended in 10 ml of buffer A (25 mM tris-HCl, 5 mM 2-mercaptoethanol, 2 mM benzamidine, 2 mM EDTA, 0.1 mM 4-(2-aminoethyl)benzenesulfonyl hydrochloride, pH 7=7.5). The cells were homogenized in a Polytoron homogenizer, and centrifuged (4° C., 25,000 G, 10 min). The supernatant was further ultracentrifuged (4° C., 100,000 G, 60 min), and the resulting supernatant was filtered through a 0.2 μm filter to obtain a soluble fraction.
2) HiTrapQ column (5 ml×2) equilibrated with buffer A was charged with the resulting soluble fraction. Phosphodiesterase was eluted using 300 ml of buffer A containing a linear gradient solution of 0 to 0.8M sodium chloride to collect sixty 5 ml fractions. Each fraction was tested for cAMP metabolizing phosphodiesterase activity.
3) The test compounds at desired concentrations were each reacted for 2 hours at 25° C. in a reactant mixture containing 20 mM tris-HCl (pH 7.5), 1 mM MgCl2, 100 μM EDTA, 330 μg/ml bovine serum albumin, 4 μg/ml 5′-nucleotidase, 0.1 μCi^3H-cAMP (0.064 μM cAMP), 10 μM rolipram, and the type VII phosphodiesterase stored solution. QAE-Sephadex suspended in 10 mM HEPES-Na (pH 7.0) was added to the reaction mixture, and the mixture was allowed to stand for 5 minutes. Then, the supernatant was recovered, and QAE-Sephadex was further added, followed by allowing the mixture to stand for 5 minutes. Then, the resulting supernatant was measure for radioactivity.
4) IC50, as the concentration of the test compound that inhibited 50% of the metabolic activity of PDE7, was calculated for each of the compounds.
In the case of `COc1cc(N)ccc1-c1nc2c(c(C3CCCCC3)nn2C)c(=O)[nH]1` [Example 44, 6-(4-Amino-2-methoxyphenyl)-3-cyclohexyl-1-methyl-1,5-dihydro-4H-pyrazolo[3,4-d]pyrimidin-4-one], the IC50 was at most 10 nM.
Take `COc1cc(NC(C)=O)ccc1-c1nc2c(c(C3CCCCC3)nn2C)c(=O)[nH]1` [Example 45, N-[4-(3-cyclohexyl-1-methyl-4-oxo-4,5-dihydro-1H-pyrazolo[3,4-d]pyrimidin-6-yl)-3-methoxyphenyl]acetamide]: the IC50 is at most 1000 nM.
Regarding `COCC(=O)Nc1ccc(-c2nc3c(c(C4CCCCC4)nn3C)c(=O)[nH]2)c(OC)c1` [Example 46, N-[4-(3-cyclohexyl-1-methyl-4-oxo-4,5-dihydro-1H-pyrazolo[3,4-d]pyrimidin-6-yl)-3-methoxyphenyl]-2-methoxyacetamide], the half-inhibitory concentration (IC50) was at most 10 nM.
In the case of `CNc1ccc(-c2nc3c(c(C4CCCCC4)nn3C)c(=O)[nH]2)c(OC)c1` [Example 47, 3-Cyclohexyl-6-[2-methoxy-4-(methylamino)phenyl]-1-methyl-1,5-dihydro-4H-pyrazolo[3,4-d]pyrimidin-4-one], the IC50 is at most 10 nM.
With `COc1cc(S(=O)(=O)N2CCN(C)CC2)ccc1-c1nc2c(c(C3CCCCC3)nn2C)c(=O)[nH]1` [Example 50, 3-Cyclohexyl-6-{2-methoxy-4-[(4-methyl-1-piperazinyl)sulfonyl]phenyl}-1-methyl-1,5-dihydro-4H-pyrazolo[3,4-d]pyrimidin-4-one monochloride], the IC50 is at most 1000 nM.
Consider `COc1cc(S(=O)(=O)N2CCOCC2)ccc1-c1nc2c(c(C3CCCCC3)nn2C)c(=O)[nH]1` [Example 51, 3-Cyclohexyl-6-[2-methoxy-4-(4-morpholinylsulfonyl)phenyl]-1-methyl-1,5-dihydro-4H-pyrazolo[3,4-d]pyrimidin-4-one], for which the IC50 is at most 10 nM.
On to `COc1cc(S(=O)(=O)N2CCC(O)CC2)ccc1-c1nc2c(c(C3CCCCC3)nn2C)c(=O)[nH]1` [Example 52, 3-Cyclohexyl-6-{4-[(4-hydroxy-1-piperidinyl)sulfonyl]-2-methoxyphenyl}-1-methyl-1,5-dihydro-4H-pyrazolo[3,4-d]pyrimidin-4-one], for which the IC50 was at most 10 nM.
For the molecule `COc1cc(S(=O)(=O)N2CCC(C(=O)O)CC2)ccc1-c1nc2c(c(C3CCCCC3)nn2C)c(=O)[nH]1` [Example 54, 1-{[4-(3-Cyclohexyl-1-methyl-4-oxo-4,5-dihydro-1H-pyrazolo[3,4-d]pyrimidin-6-yl)-3-methoxyphenyl]sulfonyl}-4-piperidinecarboxylic acid], the IC50 was at most 1000 nM.
Consider `COc1cc(S(=O)(=O)NCCN(C)C)ccc1-c1nc2c(c(C3CCCCC3)nn2C)c(=O)[nH]1` [Example 56, 4-(3-Cyclohexyl-1-methyl-4-oxo-4,5-dihydro-1H-pyrazolo[3,4-d]pyrimidin-6-yl)-N-[2-(dimethylamino)ethyl]-3-methoxybenzenesulfonamide monochloride], for which the IC50 is at most 1000 nM.
On to `COCCNS(=O)(=O)c1ccc(-c2nc3c(c(C4CCCCC4)nn3C)c(=O)[nH]2)c(OC)c1` [Example 57, 4-(3-Cyclohexyl-1-methyl-4-oxo-4,5-dihydro-1H-pyrazolo[3,4-d]pyrimidin-6-yl)-3-methoxy-N-(2-methoxyethyl) benzenesulfonamide], for which the IC50 was at most 1000 nM.
The same measure for `COc1cc(S(=O)(=O)NCCO)ccc1-c1nc2c(c(C3CCCCC3)nn2C)c(=O)[nH]1` [Example 58, 4-(3-Cyclohexyl-1-methyl-4-oxo-4,5-dihydro-1H-pyrazolo[3,4-d]pyrimidin-6-yl)-N-(2-hydroxyethyl)-3-methoxybenzenesulfonamide]: at most 1000 nM.
Turning to `COc1cc(N2CCOCC2)ccc1-c1nc2c(c(C3CCCCC3)nn2C)c(=O)[nH]1` [Example 59, 3-Cyclohexyl-6-[2-methoxy-4-(4-morpholinyl)phenyl]-1-methyl-1,5-dihydro-4H-pyrazolo[3,4-d]pyrimidin-4-one], the IC50 was at most 1000 nM.
Consider `COc1cc(N2CCNCC2)ccc1-c1nc2c(c(C3CCCCC3)nn2C)c(=O)[nH]1` [Example 60, 3-Cyclohexyl-6-[2-methoxy-4-(1-piperazinyl)phenyl]-1-methyl-1,5-dihydro-4H-pyrazolo[3,4-d]pyrimidin-4-one], for which the IC50 was at most 10 nM.
For `COc1cc(N2CCC(OC)CC2)ccc1-c1nc2c(c(C3CCCCC3)nn2C)c(=O)[nH]1` [Example 62, 3-Cyclohexyl-6-[2-methoxy-4-(4-methoxy-1-piperidinyl)phenyl]-1-methyl-1,5-dihydro-4H-pyrazolo[3,4-d]pyrimidin-4-one monomethanesulfonate], the IC50 was at most 10 nM.
To `COc1cc(N2CCN(C)CC2)ccc1-c1nc2c(c(C3CCCCCC3)nn2C)c(=O)[nH]1` [Example 64, 3-Cycloheptyl-6-[2-methoxy-4-(4-methyl-1-piperazinyl)phenyl]-1-methyl-1,5-dihydro-4H-pyrazolo[3,4-d]pyrimidin-4-one] belongs at most 1000 nM; to `COc1cc(C(=O)O)ccc1-c1nc2c(c(C3CCCCC3)nn2C)c(=O)[nH]1` [Example 65, 4-(3-Cyclohexyl-1-methyl-4-oxo-4,5-dihydro-1H-pyrazolo[3,4-d]pyrimidin-6-yl)-3-methoxybenzoic acid], at most 1000 nM.
As to `COc1cc(C(=O)N2CCN(C)CC2)ccc1-c1nc2c(c(C3CCCCC3)nn2C)c(=O)[nH]1` [Example 67, 3-Cyclohexyl-6-{2-methoxy-4-[(4-methyl-1-piperazinyl)carbonyl]phenyl}-1-methyl-1,5-dihydro-4H-pyrazolo[3,4-d]pyrimidin-4-one monomethanesulfonate], the 50% inhibitory concentration (IC50) was at most 1000 nM.
Consider `COc1cc(C(=O)N2CCOCC2)ccc1-c1nc2c(c(C3CCCCC3)nn2C)c(=O)[nH]1` [Example 68, 3-Cyclohexyl-6-[2-methoxy-4-(4-morpholinylcarbonyl)phenyl]-1-methyl-1,5-dihydro-4H-pyrazolo[3,4-d]pyrimidin-4-one], for which the 50% inhibitory concentration (IC50) was at most 1000 nM.
The same measure for `COc1cc(C(=O)N2CCC(O)CC2)ccc1-c1nc2c(c(C3CCCCC3)nn2C)c(=O)[nH]1` [Example 69, 3-Cyclohexyl-6-{4-[(4-hydroxy-1-piperidinyl)carbonyl]-2-methoxyphenyl}-1-methyl-1,5-dihydro-4H-pyrazolo[3,4-d]pyrimidin-4-one]: at most 1000 nM.
As for `COc1cc(C(=O)N2CCC(OC)CC2)ccc1-c1nc2c(c(C3CCCCC3)nn2C)c(=O)[nH]1` [Example 70, 3-Cyclohexyl-6-{2-methoxy-4-[(4-methoxy-1-piperidinyl)carbonyl]phenyl}-1-methyl-1,5-dihydro-4H-pyrazolo[3,4-d]pyrimidin-4-one], the IC50 is at most 1000 nM.
The same measure for `COc1cc(C(=O)NCC(=O)O)ccc1-c1nc2c(c(C3CCCCC3)nn2C)c(=O)[nH]1` [Example 72, {[4-(3-Cyclohexyl-1-methyl-4-oxo-4,5-dihydro-1H-pyrazolo[3,4-d]pyrimidin-6-yl)-3-methoxybenzoyl]amino}acetic acid]: at most 1000 nM; for `COCCN(C)c1ccc(-c2nc3c(c(C4CCCCC4)nn3C)c(=O)[nH]2)c(OC)c1` [Example 73, 3-Cyclohexyl-6-{2-methoxy-4-[(2-methoxyethyl)(methyl)amino]phenyl}-1-methyl-1,5-dihydro-4H-pyrazolo[3,4-d]pyrimidin-4-one]: at most 10 nM; for `COc1ccc(F)cc1-c1nc2c(c(C3CCCCC3)nn2C)c(=O)[nH]1` [Example 74, 3-Cyclohexyl-6-(5-fluoro-2-methoxyphenyl)-1-methyl-1,5-dihydro-4H-pyrazolo[3,4-d]pyrimidin-4-one]: at most 1000 nM.
`COc1cc(N2CCC(C(=O)O)CC2)ccc1-c1nc2c(c(C3CCCCC3)nn2C)c(=O)[nH]1` [Example 76]: the IC50 is at most 10 nM.
With `COc1cc(N2CCNCC2)ccc1-c1nc2c(c(C3CCCCCC3)nn2C)c(=O)[nH]1` [Example 78, 3-Cycloheptyl-6-[2-methoxy-4-(1-piperazinyl)phenyl]-1-methyl-1,5-dihydro-4H-pyrazolo[3,4-d]pyrimidin-4-one monomethanesulfonate], the IC50 is at most 10 nM.
On to `COc1cc(N2CCNCC2)c(F)cc1-c1nc2c(c(C3CCCCC3)nn2C)c(=O)[nH]1` [Example 81, monomethanesulfonate], for which the IC50 is at most 10 nM.
Regarding `COc1cc(N2CCN(C)CC2)c(F)cc1-c1nc2c(c(C3CCCCC3)nn2C)c(=O)[nH]1` [Example 82, 3-Cyclohexyl-6-[5-fluoro-2-methoxy-4-(4-methyl-1-piperazinyl)phenyl]-1-methyl-1,5-dihydro-4H-pyrazolo[3,4-d]pyrimidin-4-one], the IC50 was at most 10 nM.
